Measured values as given in patent publication US10800792B2, “Inhibitors of Bruton's tyrosine kinase and method of their use” (JANSSEN PHARMACEUTICA NV, priority 2015, dated 2020).

Biological target: unphosphorylated-BTK kinase domain (UP-BTK), GST-tagged human BTK (389-659aa) (Homo sapiens (Human), UniProt Q06187)
Assay: BTK kinase Lanthascreen binding assay
Settings: Lanthascreen tracer competition, 60 minutes incubation, pIC50 = negative log of the IC50 in molar; for IC50: read-out: BTK_I_binding pIC50 (converted)
Procedure, shortened: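 Compound binding to the unphosphorylated kinase domain was monitored by displacement of a fluorescently labelled tracer in a Lanthascreen format. Potency is given as pIC50, the negative log of the molar IC50.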

Sequence of unphosphorylated-BTK kinase domain (UP-BTK), GST-tagged human BTK (389-659aa) (Q06187 389-659): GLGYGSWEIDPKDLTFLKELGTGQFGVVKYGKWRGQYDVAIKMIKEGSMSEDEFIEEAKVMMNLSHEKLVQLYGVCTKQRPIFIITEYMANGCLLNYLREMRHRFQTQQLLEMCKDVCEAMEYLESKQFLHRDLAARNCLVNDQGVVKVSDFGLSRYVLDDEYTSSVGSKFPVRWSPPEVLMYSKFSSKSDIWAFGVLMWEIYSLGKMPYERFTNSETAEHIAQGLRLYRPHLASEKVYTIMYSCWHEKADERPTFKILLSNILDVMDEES

Structure (SMILES)	BTK_I_binding pIC50	IC50
C=CC(=O)N1CCCC(Nc2sc3nccc4c3c2NC(=O)N4c2ccc(Oc3ccccc3)cc2C)C1 (stereo not drawn) [Example 600, 2-((1-Acryloylpiperidin-3-yl)amino)-5-(2-methyl-4-phenoxyphenyl)-3H-1-thia-3,5,8-triazaacenaphthylen-4(5H)-one]	6.5	–
CNCC(=O)N1CC[C@@H](NC(=O)c2sc3nccc4c3c2NC(=O)N4c2cccc(-c3ccccc3)c2)C1 [Example 601, (R)-5-([1,1′-Biphenyl]-3-yl)-N-(1-(2-(methylamino)acetyl)pyrrolidin-3-yl)-4-oxo-4,5-dihydro-3H-1-thia-3,5,8-triazaacenaphthylene-2-carboxamide]	6.4	–
O=C(N[C@@H]1CCNC1)c1sc2nccc3c2c1NC(=O)N3c1ccnc(-c2ccccc2)c1 [Example 602, (R)-4-Oxo-5-(2-phenylpyridin-4-yl)-N-(pyrrolidin-3-yl)-4,5-dihydro-3H-1-thia-3,5,8-triazaacenaphthylene-2-carboxamide]	6.4	–
O=C(N[C@@H]1CCCNC1)c1sc2nccc3c2c1NC(=O)N3c1cccc(C2CCC2)c1 [Example 603, (R)-5-(3-Cyclobutylphenyl)-4-oxo-N-(piperidin-3-yl)-4,5-dihydro-3H-1-thia-3,5,8-triazaacenaphthylene-2-carboxamide]	6.3	–
C=CC(=O)N1CCC[C@@H](NC(=O)c2sc3nccc4c3c2NC(=O)N4c2cccc(-c3ccccc3)n2)C1 [Example 604, (R)—N-(1-Acryloylpiperidin-3-yl)-4-oxo-5-(6-phenylpyridin-2-yl)-4,5-dihydro-3H-1-thia-3,5,8-triazaacenaphthylene-2-carboxamide]	6.3	–
Cc1cc(OC2CCC2)ccc1N1C(=O)Nc2c(C(=O)N[C@@H]3CCCNC3)sc3nccc1c23 [Example 605, (R)-5-(4-cyclobutoxy-2-methylphenyl)-4-oxo-N-(piperidin-3-yl)-4,5-dihydro-3H-1-thia-3,5,8-triazaacenaphthylene-2-carboxamide]	–	501 nM
C=CC(=O)N1CCC(Nc2sc3nccc4c3c2NC(=O)N4c2ccc(Oc3ccccc3)cc2C)CC1 [Example 606, 2-((1-Acryloylpiperidin-4-yl)amino)-5-(2-methyl-4-phenoxyphenyl)-3H-1-thia-3,5,8-triazaacenaphthylen-4(5H)-one]	6.2	–
C=CC(=O)N1CCC[C@@H](NC(=O)c2sc3nccc4c3c2NC(=O)N4c2ccc(C)c(C(F)(F)F)c2)C1 [Example 607, (R)—N-(1-Acryloylpiperidin-3-yl)-5-(4-methyl-3-(trifluoromethyl)phenyl)-4-oxo-4,5-dihydro-3H-1-thia-3,5,8-triazaacenaphthylene-2-carboxamide]	6.2	–
Cc1cc(OC(C)C)ccc1N1C(=O)Nc2c(C(=O)N[C@@H]3CCCN(C(=O)/C=C/CN4C[C@@H]5OCCO[C@@H]5C4)C3)sc3nccc1c23 [Example 608, 5-(4-Isopropoxy-2-methylphenyl)-4-oxo-N—((R)-1-((E)-4-((4aR,7aS)-tetrahydro-2H-[1,4]dioxino[2,3-c]pyrrol-6(3H)-yl)but-2-enoyl)piperidin-3-yl)-4,5-dihydro-3H-1-thia-3,5,8-triazaacenaphthylene-2-carboxamide]	6.2	–
O=C(N[C@@H]1CCCNC1)c1sc2nccc3c2c1NC(=O)N3c1cc(-c2ccccc2)ccn1 [Example 610, (R)-4-Oxo-5-(4-phenylpyridin-2-yl)-N-(piperidin-3-yl)-4,5-dihydro-3H-1-thia-3,5,8-triazaacenaphthylene-2-carboxamide]	6.2	–
C=CC(=O)N1CCC[C@@H](NC(=O)c2sc3nccc4c3c2NC(=O)N4c2ccc(OC3COC3)cc2)C1 [Example 612, (R)—N-(1-Acryloylpiperidin-3-yl)-5-(4-(oxetan-3-yloxy)phenyl)-4-oxo-4,5-dihydro-3H-1-thia-3,5,8-triazaacenaphthylene-2-carboxamide]	6.1	–
O=C(N[C@@H]1CCCNC1)c1sc2nccc3c2c1NC(=O)N3c1cccc(OC2CCCC2)c1 [Example 613, (R)-5-(3-(Cyclopentyloxy)phenyl)-4-oxo-N-(piperidin-3-yl)-4,5-dihydro-3H-1-thia-3,5,8-triazaacenaphthylene-2-carboxamide]	–	794 nM
C=CC(=O)N1C[C@@H](O)[C@@H](NC(=O)c2sc3nccc4c3c2NC(=O)N4c2ccc(OC(C)C)cc2C)C1 [Example 614, N-((3S,4R)-1-Acryloyl-4-hydroxypyrrolidin-3-yl)-5-(4-isopropoxy-2-methylphenyl)-4-oxo-4,5-dihydro-3H-1-thia-3,5,8-triazaacenaphthylene-2-carboxamide]	6.1	–
O=C(N[C@@H]1CCCNC1)c1sc2nccc3c2c1NC(=O)N3c1cccc(OC2CCCCC2)c1 [Example 616, (R)-5-(3-(Cyclohexyloxy)phenyl)-4-oxo-N-(piperidin-3-yl)-4,5-dihydro-3H-1-thia-3,5,8-triazaacenaphthylene-2-carboxamide]	6.1	–
O=C(N[C@@H]1CCCNC1)c1sc2nccc3c2c1NC(=O)N3c1cncc(-c2ccccc2)c1 [Example 618, (R)-4-Oxo-5-(5-phenylpyridin-3-yl)-N-(piperidin-3-yl)-4,5-dihydro-3H-1-thia-3,5,8-triazaacenaphthylene-2-carboxamide]	6.0	–
C=CC(=O)N1CCC[C@@H](NC(=O)c2sc3nccc4c3c2NC(=O)N4c2cnc(OC)nc2)C1 [Example 619, (R)—N-(1-Acryloylpiperidin-3-yl)-5-(2-methoxypyrimidin-5-yl)-4-oxo-4,5-dihydro-3H-1-thia-3,5,8-triazaacenaphthylene-2-carboxamide]	<6	–
O=C(N[C@@H]1CCCNC1)c1sc2nccc3c2c1NC(=O)N3c1cccc(OC(F)(F)F)c1 [Example 620, (R)-4-Oxo-N-(piperidin-3-yl)-5-(3-(trifluoromethoxy)phenyl)-4,5-dihydro-3H-1-thia-3,5,8-triazaacenaphthylene-2-carboxamide]	<6	–
O=C(N[C@@H]1CCCNC1)c1sc2nccc3c2c1NC(=O)N3c1cccc(OC2CCC2)c1 [Example 621, (R)-5-(3-Cyclobutoxyphenyl)-4-oxo-N-(piperidin-3-yl)-4,5-dihydro-3H-1-thia-3,5,8-triazaacenaphthylene-2-carboxamide]	<6	–
O=C(N[C@@H]1CCCNC1)c1sc2nccc3c2c1NC(=O)N3c1cccc(-c2ccccn2)c1 [Example 622, (R)-4-Oxo-N-(piperidin-3-yl)-5-(3-(pyridin-2-yl)phenyl)-4,5-dihydro-3H-1-thia-3,5,8-triazaacenaphthylene-2-carboxamide]	<6	–
O=C(N[C@@H]1CCCNC1)c1sc2nccc3c2c1NC(=O)N3c1cccc(-c2ccccc2)n1 [Example 623, (R)-4-Oxo-5-(6-phenylpyridin-2-yl)-N-(piperidin-3-yl)-4,5-dihydro-3H-1-thia-3,5,8-triazaacenaphthylene-2-carboxamide]	<6	–
CC(C)(C)OC(=O)N1C[C@H](NC(=O)c2sc3nccc4c3c2NC(=O)N4c2ccc(Oc3ccccc3)cc2)[C@@H](F)C1 [Example 625, (3S,4S)-tert-Butyl 3-fluoro-4-(4-oxo-5-(4-phenoxyphenyl)-4,5-dihydro-3H-1-thia-3,5,8-triazaacenaphthylene-2-carboxamido)pyrrolidine-1-carboxylate]	5.9	–
O=C(N[C@@H]1CCCNC1)c1sc2nccc3c2c1NC(=O)N3c1ccc(OC2CCC2)cc1 [Example 626, (R)-5-(4-Cyclobutoxyphenyl)-4-oxo-N-(piperidin-3-yl)-4,5-dihydro-3H-1-thia-3,5,8-triazaacenaphthylene-2-carboxamide]	–	1260 nM
CC(C)(C)OC(=O)N1CCC(NC(=O)c2sc3nccc4c3c2NC(=O)N4c2ccc(Oc3ccccc3)cc2)CC1 [Example 627, tert-Butyl 4-(4-oxo-5-(4-phenoxyphenyl)-4,5-dihydro-3H-1-thia-3,5,8-triazaacenaphthylene-2-carboxamido)piperidine-1-carboxylate]	5.9	–
CC(C)(C)OC(=O)N1CCC[C@@H](NC(=O)c2sc3nccc4c3c2NC(=O)N4c2ccc(Oc3ccccc3)cc2)C1 [Example 628, (R)-tert-Butyl 3-(4-oxo-5-(4-phenoxyphenyl)-4,5-dihydro-3H-1-thia-3,5,8-triazaacenaphthylene-2-carboxamido)piperidine-1-carboxylate]	5.8	–
O=C(N[C@@H]1CCCNC1)c1sc2nccc3c2c1NC(=O)N3c1cccc(C2CCCCC2)c1 [Example 629, (R)-5-(3-Cyclohexylphenyl)-4-oxo-N-(piperidin-3-yl)-4,5-dihydro-3H-1-thia-3,5,8-triazaacenaphthylene-2-carboxamide]	–	1260 nM
CC(C)c1cccc(N2C(=O)Nc3c(C(=O)N[C@@H]4CCCNC4)sc4nccc2c34)c1 [Example 630, (R)-5-(3-Isopropylphenyl)-4-oxo-N-(piperidin-3-yl)-4,5-dihydro-3H-1-thia-3,5,8-triazaacenaphthylene-2-carboxamide]	5.9	–
C=CC(=O)N1CCC[C@@H](NC(=O)c2sc3nccc4c3c2NC(=O)N4c2cccc(-c3ccncc3)c2)C1 [Example 631, (R)—N-(1-Acryloylpiperidin-3-yl)-4-oxo-5-(3-(pyridin-4-yl)phenyl)-4,5-dihydro-3H-1-thia-3,58-triazaacenaphthylene-2-carboxamide]	5.9	–
